Results taken from patent US4016166A, “1-Nitrophenylquinazoline-2,4(1H,3H)-diones” (Hisamitsu Pharmaceutical Co., Inc., priority 1973, dated 1977).
Like-named read-outs stand apart in the source and are kept apart here.

Assays:
carrageenin edema = assay: Anti-inflammatory effect (carrageenin edema, hind paw, rat); assay type: in vivo, Wistar-strain male rats; conditions: oral, 3 hours after carrageenin, read-out: anti-inflammatory effect (inhibition percentage of carrageenin edema)
Procedure: A group of five Wistar-strain male rats (100-150 g) were orally administered with each test compound suspended in 0.5 % tragacanth-saline solution. After 30 minutes 0.5 %-1.0 % carrageenin suspended in the water for injection was injected subcutaneously to a hind paw. After 3 hours the carrageenin edema was measured by volume and the inhibition percentage was determined with respect to the results for the control animals. The inhibition percentages were shown with the notations as follows: […]

[1] = system: acetic acid writhing syndrome; assay: Analgetic effect (acetic acid writhing, mouse); assay type: in vivo, dd-strain male mice; conditions: oral, read-out: analgetic effect ED50 (95% C.L.)
Excerpt: Each test compound suspended in 0.5 % tragacanth-saline solution was orally administered to dd-strain male mice (18-20 g). After one hour 0.6 % acetic acid solution was intraperitoneally injected in a volume of […].

righting reflex = assay: Central nervous system depressive effect (disappearance of righting reflex, mouse); assay type: in vivo, dd-strain male mice; conditions: ip, read-out: CNS depressive effect (dose required for disappearance of righting reflex)
Procedure: Each test compound suspended in 0.5 % tragacanth-saline solution was injected intraperitoneally to dd-strain male mice (16-24 g). The disappearance of righting reflex was observed under noiseless circumstances. The dose required for the dissappearance of righting reflex is indicated with the following notations: […]

dd-strain male mice = assay type: in vivo; conditions: mouse, 72 hours
Procedure: The lethal dose was estimated from the death of animals 72 hours after administration.

| SMILES | inhibition in vivo at 10 mg/kg (carrageenin edema) [%] | inhibition in vivo at 50 mg/kg (carrageenin edema) [%] | ED50 [1] [mg/kg] | minimal effective dose (righting reflex; mouse) [mg/kg] | acute toxicity (lethal dose) (dd-strain male mice; i.p.) [mg/kg] | acute toxicity (lethal dose) (dd-strain male mice; p.o.) [mg/kg] | minimal effective dose (righting reflex; Mus musculus) [mg/kg] |
| --- | --- | --- | --- | --- | --- | --- | --- |
| O=c1c2ccccc2n(-c2cccc([N+](=O)[O-])c2)c(=O)n1CC(F)(F)F [Compound 12, 1-(m-nitrophenyl)-3-(2,2,2-trifluoroethyl) quinazoline-2,4(1H, 3H)-dione] | 16 to 30 | 31 to 45 | 44 | > 1000 | > 1000 | > 2000 |  |
| O=c1c2ccccc2n(-c2cccc([N+](=O)[O-])c2)c(=O)n1CCOCCO [Compound 17] |  | 16 to 30 | 3.7 | 30 to 100 | 1000 | 2000 |  |
| CCCCC1C(=O)N(c2ccccc2)N(c2ccccc2)C1=O [phenylbutazone, reference compound] |  |  |  | 300 to 1000 |  |  |  |
| CC(C)n1c(=O)c2ccccc2n(-c2cccc([N+](=O)[O-])c2)c1=O | 16 to 30 | 46 to 60 | 2.9 | 30 to 100 | > 1000 | > 2000 |  |
| O=c1c2ccccc2n(-c2cccc([N+](=O)[O-])c2)c(=O)n1CCO [Compound 13] |  | 31 to 45 | 2.25 | 10 to 30 |  | 2000 |  |
| CCn1c(=O)c2ccccc2n(-c2cccc([N+](=O)[O-])c2)c1=S [Compound 24, 1-(m-nitrophenyl)-3-ethyl-2-thio-4-oxo-1,2,3,4-tetrahydroquinazoline] | 31 to 45 | 46 to 60 | 3.4 | 300 to 1000 | > 1000 |  |  |
| Cc1ccccc1-n1c(C)nc2ccccc2c1=O [methaqualone, reference compound] |  |  |  |  |  |  | 10 to 30 |
| O=c1c2ccccc2n(-c2cccc([N+](=O)[O-])c2)c(=O)n1CCCl [Compound 11] |  | 16 to 30 | 5.5 | 100 to 300 | > 1000 | > 2000 |  |
| C#CCn1c(=O)c2ccccc2n(-c2cccc([N+](=O)[O-])c2)c1=O | < 15 | 31 to 45 | 40 | > 1000 | > 1000 | > 2000 |  |
| Cn1c(=O)c2ccccc2n(-c2cccc([N+](=O)[O-])c2)c1=O [Compound 2, 1-(m-nitrophenyl)-3-methylquinazoline-2,4(1H, 3H)-dione] | 31 to 45 | 46 to 60 | 12.5 | 100 to 300 | > 1000 | > 2000 |  |
| C=CCn1c(=O)c2ccccc2n(-c2cccc([N+](=O)[O-])c2)c1=O [Compound 6, 1-(m-nitrophenyl)-3-allylquinazoline-2,4(1H, 3H)-dione] | 16 to 30 | 31 to 45 | > 100 | > 1000 | > 1000 | 2000 |  |
| CCn1c(=O)c2ccccc2n(-c2cccc(C(F)(F)F)c2)c1=O [R1=drawing 18, R2=C2 H5, reference compound] | < 15 | 31 to 45 | > 100 | > 1000 | 456 | > 4000 |  |
| O=c1c2ccccc2n(-c2cccc(C(F)(F)F)c2)c(=O)n1CCO [R1=drawing 18, R2=CH2 CH2 OH, reference compound] | < 15 | 31 to 45 | 35 | 30 to 100 | 200 | 970 |  |
| Cn1c(=O)c2ccccc2n(-c2cccc([N+](=O)[O-])c2)c1=S [Compound 23] | < 15 | 16 to 30 | > 100 | > 1000 | > 1000 |  |  |
| O=c1c2ccccc2n(-c2cccc([N+](=O)[O-])c2)c(=S)n1CC(F)(F)F [Compound 26] |  | < 15 | > 100 | > 1000 | > 1000 | > 2000 |  |
| O=c1c2ccccc2n(-c2cccc([N+](=O)[O-])c2)c(=O)n1CCF [Compound 10] | > 61 | 46 to 60 | 1.48 | 30 to 100 | > 1000 | > 2000 |  |
| O=c1c2ccccc2n(-c2cccc([N+](=O)[O-])c2)c(=O)n1CC1CC1 | 31 to 45 | 46 to 60 |  | 100 to 300 | 1000 |  |  |
| CCn1c(=O)c2ccccc2n(-c2cccc([N+](=O)[O-])c2)c1=O [Compound 3, 1-(m-nitrophenyl)-3-ethylquinazoline-2,4(1H, 3H)-dione] | > 61 | > 61 | 6 | 30 to 100 | > 1000 | > 2000 |  |
| CC(=O)OCCn1c(=O)c2ccccc2n(-c2cccc([N+](=O)[O-])c2)c1=O [Compound 18] |  | 16 to 30 | 1.7 | 10 to 30 | > 1000 | 2000 |  |
| O=C(O)c1ccccc1Nc1cccc(C(F)(F)F)c1 [flufenamic acid, reference compound] |  |  |  | > 1000 |  |  |  |
| CCCn1c(=O)c2ccccc2n(-c2cccc([N+](=O)[O-])c2)c1=O [Compound 4, 1-(m-nitrophenyl)-3-propylquinazoline-2,4(1H,3H)-dione] | < 15 | 16 to 30 | 51 | > 1000 | 1000 | > 2000 |  |
| CCOCCn1c(=O)c2ccccc2n(-c2cccc([N+](=O)[O-])c2)c1=O [Compound 16, 1-(m-nitrophenyl)-3-(2-ethoxyethyl)quinazoline-2,4(1H, 3H)-dione] |  | 16 to 30 | 2.15 | 30 to 100 | > 1000 | > 2000 |  |
